Results: article PMC4071583, “Potent Cytotoxic Peptides from the Australian Marine Sponge Pipestela candelabra” (Marine Drugs, 2014)
Read-outs that look alike come from different tables or passages of the source.

What was measured:
[1] = system: Human prostate adenocarcinoma cells (PC3); experiment: Cytotoxicity assay (Alamar blue), human prostate cancer cells PC3; assay type: cell-based; conditions: for IC50: Homo sapiens, read-out: IC50 PC3
Procedure: (§1) Human prostate adenocarcinoma cells (PC3) and human neonatal foreskin fibroblast (noncancer cells, NFF) were grown in media RPMI-1640 (Life Technologies, Grand Island, NY, USA) supplemented with 10% foetal bovine serum (FBS). Cells were grown under 5% CO2 in a humidified environment at 37°C. Fifty microlitres of media containing 500 cells were added to a 384 well microtitre plate (Perkin Elmer, Waltham, MA, USA, part number: 6007660) containing 0.2 μL of a compound. Final compound concentration range tested was 10 μM to 1 pM (final DMSO concentration of 0.4%). Each concentration in media was tested in triplicate and in two independent experiments. Cells and compounds were then incubated in 72 h at 37 °C, 5% CO2 and 80% humidity. Cell proliferation was measured with the addition of 10 μL of a 60% Alamar blue (Invitrogen, Carlsbad, CA, USA) solution in media to each well of the microtitre plate to give a final concentration of 10% Alamar blue. The plates were incubated at 37 °C, 5% CO2 and 80% humidity within 24 h. The fluorescence of each well was read at excitation 535 nm and emission 590 nm on the Perkin Elmer EnVision Multilabel Reader 2104. Eight-point concentration response curves were then analysed using non-linear regression and IC50 values determined by using GraphPad Prism 5 (GraphPad Software Inc., La Jolla, CA, USA). Paclitaxel and doxorubicin were used during each screening as positive control compounds.

[2] = system: human neonatal foreskin fibroblast (noncancer cells, NFF); experiment: Cytotoxicity assay (Alamar blue), human neonatal foreskin fibroblast non-cancer cells NFF; assay type: cell-based; conditions: for IC50: read-out: IC50 NFF
Procedure: as §1

[3] = Auto-oxidation on storage, LC/MS analysis; assay type: physicochemical; conditions: dried compound stored at room temperature for a few months
Source text: We noticed that the dried milnamides A (5) and E (1) changed from white powders to yellow powders when the compounds were stored at room temperature for a few months. […] As in the previous study, we are unable to determine if milnamides A (5) and E (1) are naturally occurring or produced by auto-oxidation.

[4] = parameters: method as in PMID 15547903; conditions: cited from earlier work
[5] = system: murine leukemia L1210 cell line; parameters: method as in doi:10.1016/0040-4039(90)87015-R; conditions: cited from earlier work
advanced solid tumors = system: advanced solid tumors; parameters: method as in PMID 19096380; conditions: cited from earlier work
[6] = system: human xenograft cancer models; parameters: method as in PMID 19825803; conditions: many human xenograft cancer models; cited from earlier work
[7] = PC-3, PC3 cells, 72 h incubation, Alamar blue, mean of two independent experiments in triplicate
[8] = NFF cells, 72 h incubation, Alamar blue, mean of two independent experiments in triplicate

Row | SMILES | IC50 ([1]; PC-3, 72 h) [nM] | IC50 ([2]; NFF, 72 h) [nM] | other results
1 | C/C(=C\[C@H](C(C)C)N(C)C(=O)[C@@H](NC(=O)[C@H]1N(C)Cc2c(c3ccccc3n2C)C1(C)C)C(C)(C)C)C(=O)O [Compound 5, milnamide A] | 11 | 70.6 | fold more potent than milnamide C (6) ([1]; PC3 cells, comparator 6): 3 fold; fold more potent than milnamide C (7) ([1]; PC3 cells, comparator 7): 35 fold; milnamide D (7) or G (3) formed by auto-oxidation (LC/MS) [3]: 5%–10%; auto-oxidation while standing in chloroform [4]: auto-oxidized slowly to milamide D (7)
2 | CC(=CC(C(C)C)N(C)C(=O)C(NC(=O)C1N(C)C(=O)c2[nH]c3ccccc3c2C1(C)C)C(C)(C)C)C(=O)O (stereo not shown) [Compound 2, milnamide F] | 2180 | 5650 | 
3 | CC(=O)O[C@H]1C(=O)[C@@]2(C)[C@H]([C@H](OC(=O)c3ccccc3)[C@]3(O)C[C@H](OC(=O)[C@H](O)[C@@H](NC(=O)c4ccccc4)c4ccccc4)C(C)=C1C3(C)C)[C@]1(OC(C)=O)CO[C@@H]1C[C@@H]2O [Taxol, Paclitaxel, reference compound] |  |  | IC50 [1, 7]: 2.26 nM; IC50 [2, 8]: 3.94 nM
4 | CC(=CC(C(C)C)N(C)C(=O)C(NC(=O)C1N(C)Cc2[nH]c3ccccc3c2C1(C)C)C(C)(C)C)C(=O)O (stereo not shown) [Compound 1, milnamide E] | 34.2 | 123 | milnamide D (7) or G (3) formed by auto-oxidation (LC/MS) [3]: 5%–10%
5 | C/C1=C\[C@@H](C)C[C@@H](C)OC(=O)[C@@H](C)NC(=O)[C@H](Cc2ccc(O)c(Cl)c2)N(C)C(=O)CNC(=O)[C@H](C)C1 [Compound 12, geodiamolide F] | 155 | 708 | IC50 [5]: 11.2 nM
6 | CN[C@H](C(=O)N[C@H](C(=O)N(C)[C@H](/C=C(\C)C(=O)O)C(C)C)C(C)(C)C)C(C)(C)c1ccccc1 [HTI-286] |  |  | common toxicities observed (advanced solid tumors): neutropaenia, nausea, alopecia, and pain; objective responses (advanced solid tumors; phase II trial halted): no objective responses
7 | CN[C@H](C(=O)N[C@H](C(=O)N(C)[C@H](/C=C(\C)C(=O)O)C(C)C)C(C)(C)C)C(C)(C)c1cn(C)c2ccccc12 [Compound 8, hemiasterlin] | 0.0484 | 0.404 | fold more cytotoxic than hemiasterlin A (9) ([1]; comparator 9): six-fold
8 | C/C(=C\[C@H](C(C)C)N(C)C(=O)[C@@H](NC(=O)[C@H]1[N+](C)=Cc2c(c3ccccc3n2C)C1(C)C)C(C)(C)C)C(=O)O [Compound 7, milnamide D] | 381 | 1190 | 
9 | C/C(=C\[C@H](C(C)C)N(C)C(=O)[C@@H](NC(=O)[C@H]1N(C)C(=O)c2c(c3ccccc3n2C)C1(C)C)C(C)(C)C)C(=O)O [Compound 6, milnamide C] | 31.7 | 188 | 
10 | CC(=CC(C(C)C)N(C)C(=O)C(NC(=O)C1[N+](C)=Cc2[nH]c3ccccc3c2C1(C)C)C(C)(C)C)C(=O)O (stereo not shown) [Compound 3, milnamide G] | 2870 |  | inhibition at 10 µM ([2]; NFF, read-out: % Inhibition NFF): 39%
11 | C/C1=C\[C@@H](C)C[C@@H](C)OC(=O)[C@@H](C)NC(=O)[C@H](Cc2ccc(O)c(I)c2)N(C)C(=O)CNC(=O)[C@H](C)C1 [Compound 10, geodiamolide D] | 33.1 | 99.1 | IC50 [5]: 62.2 nM; fold more potent than geodiamolide E (11) ([1]; PC3 cells, comparator 11): 4 fold; fold more active than geodiamolide F (12) ([1]; PC3 cells, comparator 12): 5 fold
12 | COc1cccc2c1C(=O)c1c(O)c3c(c(O)c1C2=O)C[C@@](O)(C(=O)CO)C[C@@H]3O[C@H]1C[C@H](N)[C@H](O)[C@H](C)O1 [Doxorubicin, doxorubicin, reference compound] |  |  | IC50 [1, 7]: 359 nM; IC50 [2, 8]: 530 nM
13 | C/C(=C\[C@H](C(C)C)N(C)C(=O)[C@@H](NC(=O)[C@H]1CCCCN1C(C)C)C(C)(C)C)C(=O)O [Compound E7974] |  |  | in vivo antitumor efficacy [6]: strong in vivo antitumor efficacy
14 | CNC(C(=O)NC(C(=O)N(C)C(C=C(C)C(=O)O)C(C)C)C(C)(C)C)C(C)(C)c1cn(C(O)C(=O)NC(C(=O)N(C)C(C=C(C)C(=O)O)C(C)C)C(C)(C)C)c2ccccc12 (stereo not shown) [Compound 4, hemiasterlin D] | 2.2 | 8.16 | 
15 | C/C1=C\[C@@H](C)C[C@@H](C)OC(=O)[C@@H](C)NC(=O)[C@H](Cc2ccc(O)c(Br)c2)N(C)C(=O)CNC(=O)[C@H](C)C1 [Compound 11, geodiamolide E] | 118 | 425 | IC50 [5]: 24.2 nM
